Reference: article PMC6856039 (Investigational New Drugs, 2019)

Test system: Japanese patients with advanced EGFR mutation-positive NSCLC
Test: Phase I study: dose-limiting toxicities, adverse drug reactions, tolerability
Format: in vivo, human
Method: This was an open-label, non-randomized, dose escalation phase I study conducted between December 14, 2015 and July 7, 2016 at 12 centers in Japan. The study was conducted in three phases (dose escalation phase, expansion phase, and extension phase), and the design is shown in Supplementary Fig. 1 (Online Resource 1). […] In patients who received the BID regimen, the administration interval was ≥10 h.
The first phase was the dose escalation phase conducted according to a 3 + 3 design, with a minimum of three patients treated at each dose level. […] The dosing rationale was derived from a 4-weeks repeated oral-dose toxicology study in monkeys. […] If none of the initial three patients treated within a dose level experienced a dose-limiting toxicity (DLT) during Cycle 1, the dose was escalated to the next level. […] If none of the three additional patients experienced DLTs after all of them completed Cycle 1, the dose was escalated to the next level. If at least one of the additional three patients developed a DLT, then the dose escalation was stopped and at least six evaluable patients were enrolled at the previous dose level to establish the maximum tolerated dose (MTD). The maximum dose level was defined as Dose Level 9 (150 mg/day). Based on safety and PK results, the dosing schedule could be changed to a BID regimen.
AEs were evaluated and graded according to the National Cancer Institute Common Terminology Criteria for Adverse Events Version 4.03. DLTs were also evaluated and defined as hematologic toxicity (Grade 4 neutropenia lasting >7 days, Grade 4 thrombocytopenia or Grade 3 thrombocytopenia associated with bleeding and requiring blood transfusion, or febrile neutropenia) or non-hematologic toxicity (Grade ≥3 nausea/vomiting uncontrolled by aggressive antiemetic treatment, Grade ≥3 diarrhea lasting >48 h and unresponsive to treatment, Grade ≥3 aspartate aminotransferase/alanine aminotransferase lasting >7 days, corneal disorder worsening by ≥1 grade, or Grade ≥3 other non-hematological toxicity).

C=CC(=O)N[C@H]1CCc2c(-c3cnc4ccccc4c3)c3c(N)ncnc3n2C1 [TAS-121]
ALT increased, ≥G3 (4 mg/day QD, N = 29): 0 n
AST increased, ≥G3 (4 mg/day QD, N = 29): 0 n
Decreased appetite, any grade (4 mg/day QD, N = 29): 0 n
Decreased appetite, ≥G3 (4 mg/day QD, N = 29): 0 n
Diarrhea, any grade (4 mg/day QD, N = 29): 6 n
Diarrhea, ≥G3 (4 mg/day QD, N = 29): 0 n
Dry skin, ≥G3 (4 mg/day QD, N = 29): 0 n
Hemoglobin decreased, ≥G3 (4 mg/day QD, N = 29): 0 n
Hypoalbuminemia, ≥G3 (4 mg/day QD, N = 29): 0 n
Malaise, ≥G3 (4 mg/day QD, N = 29): 0 n
Nausea, ≥G3 (4 mg/day QD, N = 29): 0 n
Pruritus, ≥G3 (4 mg/day QD, N = 29): 0 n
Pyrexia, ≥G3 (4 mg/day QD, N = 29): 0 n
Rash, ≥G3 (4 mg/day QD, N = 29): 0 n
Stomatitis, ≥G3 (4 mg/day QD, N = 29): 0 n
Urticaria, ≥G3 (4 mg/day QD, N = 29): 0 n
Vomiting, ≥G3 (4 mg/day QD, N = 29): 0 n
WBC decreased, ≥G3 (4 mg/day QD, N = 29): 0 n
proportion of patients whose dose was decreased (8 mg/day BID (MTD) group, 7/38): 18.4%
proportion of patients whose treatment was interrupted (8 mg/day BID (MTD) group, 17/38): 44.7%
incidence of discontinuation due to ADRs (8 mg/day BID (MTD), 3/38): 7.9%
AST increased, ≥G3 (8 mg/day BID, N = 38): 0 n
Decreased appetite, ≥G3 (8 mg/day BID, N = 38): 0 n
Dry skin, ≥G3 (8 mg/day BID, N = 38): 0 n
Hypoalbuminemia, ≥G3 (8 mg/day BID, N = 38): 0 n
Malaise, ≥G3 (8 mg/day BID, N = 38): 0 n
Nausea, ≥G3 (8 mg/day BID, N = 38): 0 n
Other embolic and thrombotic events, ≥G3 (8 mg/day BID, N = 38): 0 n
Pruritus, ≥G3 (8 mg/day BID, N = 38): 0 n
Pyrexia, ≥G3 (8 mg/day BID, N = 38): 0 n
Stomatitis, ≥G3 (8 mg/day BID, N = 38): 0 n
WBC decreased, ≥G3 (8 mg/day BID, N = 38): 0 n
ALT increased, ≥G3 (8 mg/day QD, N = 38): 0 n
AST increased, ≥G3 (8 mg/day QD, N = 38): 0 n
Decreased appetite, ≥G3 (8 mg/day QD, N = 38): 0 n
Dry skin, ≥G3 (8 mg/day QD, N = 38): 0 n
Embolic and thrombotic events, any grade (8 mg/day QD, N = 38): 6 n
Hypoalbuminemia, ≥G3 (8 mg/day QD, N = 38): 0 n
Interstitial lung disease, ≥G3 (8 mg/day QD, N = 38): 0 n
Malaise, ≥G3 (8 mg/day QD, N = 38): 0 n
Nausea, any grade (8 mg/day QD, N = 38): 5 n
Nausea, ≥G3 (8 mg/day QD, N = 38): 0 n
Other embolic and thrombotic events, ≥G3 (8 mg/day QD, N = 38): 0 n
Pruritus, ≥G3 (8 mg/day QD, N = 38): 0 n
Rash maculo-papular, any grade (8 mg/day QD, N = 38): 11 n
Stomatitis, ≥G3 (8 mg/day QD, N = 38): 0 n
Urticaria, any grade (8 mg/day QD, N = 38): 5 n
Urticaria, ≥G3 (8 mg/day QD, N = 38): 0 n
Vomiting, ≥G3 (8 mg/day QD, N = 38): 0 n
WBC decreased, any grade (8 mg/day QD, N = 38): 5 n
WBC decreased, ≥G3 (8 mg/day QD, N = 38): 0 n
proportion of patients whose dose was decreased (10 mg/day QD (MTD) group, 7/18): 38.9%
proportion of patients whose treatment was interrupted (10 mg/day QD (MTD) group, 12/18): 66.7%
incidence of discontinuation due to ADRs (10 mg/day QD (MTD), 2/18): 11.1%
AST increased, ≥G3 (10 mg/day QD, N = 18): 0 n
Decreased appetite, ≥G3 (10 mg/day QD, N = 18): 0 n
Diarrhea, ≥G3 (10 mg/day QD, N = 18): 0 n
Dry skin, ≥G3 (10 mg/day QD, N = 18): 0 n
Embolic and thrombotic events, any grade (10 mg/day QD, N = 18): 5 n
Hypoalbuminemia, ≥G3 (10 mg/day QD, N = 18): 0 n
Interstitial lung disease, any grade (10 mg/day QD, N = 18): 0 n
Interstitial lung disease, ≥G3 (10 mg/day QD, N = 18): 0 n
Malaise, ≥G3 (10 mg/day QD, N = 18): 0 n
Nausea, ≥G3 (10 mg/day QD, N = 18): 0 n
Platelet count decreased, any grade (10 mg/day QD, N = 18): 12 n
Pruritus, ≥G3 (10 mg/day QD, N = 18): 0 n
Pyrexia, ≥G3 (10 mg/day QD, N = 18): 0 n
Rash maculo-papular, any grade (10 mg/day QD, N = 18): 0 n
Rash maculo-papular, ≥G3 (10 mg/day QD, N = 18): 0 n
Stomatitis, ≥G3 (10 mg/day QD, N = 18): 0 n
Urticaria, any grade (10 mg/day QD, N = 18): 6 n
WBC decreased, any grade (10 mg/day QD, N = 18): 0 n
WBC decreased, ≥G3 (10 mg/day QD, N = 18): 0 n
ALT increased, any grade (12 mg/day BID, N = 5): 0 n
ALT increased, ≥G3 (12 mg/day BID, N = 5): 0 n
AST increased, any grade (12 mg/day BID, N = 5): 0 n
AST increased, ≥G3 (12 mg/day BID, N = 5): 0 n
Decreased appetite, ≥G3 (12 mg/day BID, N = 5): 0 n
Dermatological toxicity, ≥G3 (12 mg/day BID, N = 5): 0 n
Dry skin, any grade (12 mg/day BID, N = 5): 0 n
Dry skin, ≥G3 (12 mg/day BID, N = 5): 0 n
Embolic and thrombotic events, any grade (12 mg/day BID, N = 5): 0 n
Embolic and thrombotic events, ≥G3 (12 mg/day BID, N = 5): 0 n
Hypoalbuminemia, ≥G3 (12 mg/day BID, N = 5): 0 n
Malaise, ≥G3 (12 mg/day BID, N = 5): 0 n
Nausea, ≥G3 (12 mg/day BID, N = 5): 0 n
Other embolic and thrombotic events, any grade (12 mg/day BID, N = 5): 0 n
Other embolic and thrombotic events, ≥G3 (12 mg/day BID, N = 5): 0 n
Pruritus, any grade (12 mg/day BID, N = 5): 0 n
Pruritus, ≥G3 (12 mg/day BID, N = 5): 0 n
Pulmonary embolism, any grade (12 mg/day BID, N = 5): 0 n
Pulmonary embolism, ≥G3 (12 mg/day BID, N = 5): 0 n
Pyrexia, ≥G3 (12 mg/day BID, N = 5): 0 n
Rash maculo-papular, ≥G3 (12 mg/day BID, N = 5): 0 n
Rash, ≥G3 (12 mg/day BID, N = 5): 0 n
Stomatitis, ≥G3 (12 mg/day BID, N = 5): 0 n
